In ChEMBL document CHEMBL1134257, “Probing the transducin nucleotide binding site with GDP analogues” (Bioorg Med Chem Lett, 2001):

Experiment: Inhibitory concentration for heterotrimeric G protein, transducer
In the case of `Nc1nc2c(ncn2[C@@H]2O[C@H](COC(=O)CP(=O)(O)O)C(O)C2O)c(=O)[nH]1` (single isomer, unassigned), the IC50 is reported as > 1000 µM.
In the case of `NCCOCCOc1nc(N)nc2c1ncn2C1O[C@H](COP(=O)(O)NP(=O)(O)O)[C@@H](O)[C@H]1O` (stereo partly drawn), the IC50 is reported as > 1000 µM.
`Nc1nc(O)c2ncn(C3O[C@H](COP(=O)(O)NP(=O)(O)O)[C@@H](O)[C@H]3O)c2n1` (stereo partly drawn) showed an IC50 of 12 µM.
For `CCC(=O)O[C@H]1[C@@H](O)[C@H](n2cnc3c(O)nc(N)nc32)O[C@@H]1COP(=O)(O)NP(=O)(O)O`, the IC50 was 500 µM.
In the case of `NCCOCCOCCn1c(N)nc2c(ncn2C2O[C@H](COP(=O)(O)NP(=O)(O)O)[C@@H](O)[C@H]2O)c1=O` (stereo partly drawn), the IC50 is reported as > 1000 µM.
With `Nc1nc2c(ncn2[C@@H]2O[C@H](COP(=O)(O)CP(=O)(O)O)C(O)C2O)c(=O)[nH]1` (single isomer, unassigned) [PHOSPHOMETHYLPHOSPHONIC ACID GUANOSYL ESTER] the IC50 was > 1000 µM.
In the case of `Nc1nc(O)c2ncn(C3O[C@H](COP(=O)(O)CC(=O)O)C(O)C3O)c2n1` (single isomer, unassigned), the IC50 is reported as > 1000 µM.
For `Nc1nc(O)c2ncn(C3O[C@H](COC(=O)CC(=O)O)C(O)C3O)c2n1` (single isomer, unassigned), the IC50 was > 1000 µM.
